# Tests used:
# [1] = Dynamic vapor sorption (DVS) moisture sorption isotherm, solid re-measured by HT-XRPD; type: physicochemical
# Procedure: Moisture sorption isotherms were collected on a DVS Adventure system from Surface Measurement Systems (London, UK). Sample size was circa 10 mg of solid material. A full sorption and desorption isotherm was recorded by varying the relative humidity from 40-95-0-40% in steps of 10% at a constant temperature of 25° C. Weight equilibration per step was set at dm/dt of 0.002%/min. Afterwards the sample was measured by HT-XRPD.
# [2] = Exposure of solids to 2 days at 40° C./75% RH (AAC), remeasured by XRPD; type: physicochemical; conditions: Table 1, lyophilization/recrystallization; ambient-dried solid after 2 days 40° C./75% RH; crystalline; pc = poor crystalline
smiles,measurement,setting,value
CCc1cc(/C(C)=N/OCc2ccc(C3CCCCC3)c(C(F)(F)F)c2)ccc1CN1CC(C(=O)O)C1.CCc1cc(/C(C)=N/OCc2ccc(C3CCCCC3)c(C(F)(F)F)c2)ccc1CN1CC(C(=O)O)C1.O=C(O)/C=C/C(=O)O [crystalline Form A],mass uptake at 80% RH,"[1]; DVS, 25° C.",2.4%
same,total mass difference between 0-95% RH,"[1]; DVS, 25° C., RH cycle 40-95-0-40%",3.6%
same,hygroscopicity according to the EP hygroscopicity classification,"[1]; DVS, based on mass uptake at 80% RH",moderately hygroscopic
same,physical stability after the sorption-desorption cycle (XRPD of solid recovered after DVS),"[1]; after DVS cycle 40-95-0-40% RH, 25° C.",physically stable
same,HT-XRPD AAC-Amb-dried (solid form after AAC),[2],Form A

# Source: patent publication US11667607B1 (ZYLORION HEALTH INC., priority 2022, dated 2023)
